From patent publication US10822317B2, “Methods and compositions for wound healing” (QBiotics Limited, priority 2013, dated 2020) come the findings set out here.

The test system of assay [1] is human peripheral blood monocytes. Kind of assay: Differentiation of monocytes into macrophages. Conditions: 10-fold dilutions; 4 days; adherence and morphology. The class given is cell-based. The procedure: To determine potential effects of Compound 1 and fifteen other epoxy-tigliane compounds in the array on monocyte differentiation, human peripheral blood mononuclear cells (PBMCs) were isolated by Ficoll-Paque sedimentation of heparinised blood from a human donor, and plated at 100,000 cells/well in RPMI-1640 10% FCS. Duplicate wells were treated with 10-fold dilutions of the compounds and incubated at 37° C. for 4 days. The wells were scored visually for cell attachment and morphology, then washed twice with PBS, stained with sulfurhodamine and the incorporate stain quantitated in an ELISA reader. The plates were then washed with water and stained with 1% crystal violet in methanol for photography and scoring of adherent cell morphology.

In assay [2] the test system is human neonatal fibroblasts. Kind of assay: Scratch closure, human neonatal fibroblasts, Method 3 (IncuCyte). The class given is cell-based. Conditions: 200 ng/mL. The procedure: The ability of early. passage neonatal foreskin fibroblasts (NFF) cultured in RPMI 1640-10% foetal calf serum to migrate across a scratch wound made in a confluent monolayer following treatment with purified compounds or plant extracts was determined using one or more of the following three methods.
Cells were seeded and treated in 96-well plates as in Method 2 (5 replicate wells per dilution), except that the scratches were made in one action with a tool having 96, 1 mm thick teflon coated pins (Essen Bioscience Woundmaker). The plate was then placed in a 37° C., 5% CO2 humidified atmosphere in an IncuCyte FLR instrument programmed to photograph each well under phase contrast at 3 hr intervals for 42 hours. The software determined the initial scratch boundaries and their rate of closure. Accelerated wound closure was considered to be significant if the initial rate of closure was >10% of the untreated controls.

As for “12,13-di-heptanoyl-6,7-epoxy-4,5,9,12,13,20-hexahydroxy-1-tigliaen-3-one [Compound 49]”, the “Differentiation endpoint (endpoint concentration in dilution series for induction of macrophage phenotype)” value (“Differentiation endpoint” below) in assay [1] was 1 ng/mL.

With “12,13-di-nonoyl-6,7-epoxy-4,5,9,12,13,20-hexahydroxy-1-tigliaen-3-one [Compound 41]”, the “Differentiation endpoint” value in assay [1] was determined as 0.1 ng/mL.

Take “12-(3-butenoyl)-13-nonanoyl-6,7-epoxy-4,5,9,12,13,20-hexahydroxy-1-tigliaen-3-one [Compound 22]”: the “Differentiation endpoint” value in assay [1] is 100 ng/mL. Also, the “% closure compared to control” value in assay [2] is listed as 400%.

As for “12-benzoyl-13-(2-methylbutanoyl)-6,7-epoxy-4,5,9,12,13,20-hexahydroxy-1-tigliaen-3-one [Compound 23]”, the “Differentiation endpoint” value in assay [1] is 1 ng/mL. Further, in assay [2], the “% closure compared to control” value is given as 130%.

Turning to “12-benzoyl-13-butanoyl-6,7-epoxy-4,5,9,12,13,20-hexahydroxy-1-tigliaen-3-one [Compound 28]”, the “% closure compared to control” value in assay [2] came to 140%.

“12-myristoyl-13-(2-methylbutanoyl)-6,7-epoxy-4,5,9,12,13,20-hexahydroxy-1-tigliaen-3-one [Compound 51]”: in assay [1], the “Differentiation endpoint” value came to 1 ng/mL.

As for “12-myristoyl-13-acetyl-6,7-epoxy-4,5,9,12,13,20-hexahydroxy-1-tigliaen-3-one [Compound 50]”, in assay [1], the “Differentiation endpoint” value is on record as 1 ng/mL.

For “12-tigloyl-13-butanoyl-6,7-epoxy-4,5,9,12,13,20-hexahydroxy-1-tigliaen-3-one [Compound 21]”, the “Differentiation endpoint” value in assay [1] is 10 ng/mL. Also, the “% closure compared to control” value in assay [2] is 200%.

Take `CCCCCC=CC=CC=CC(=O)OC1C(C)C2(O)C(C3OC3(CO)C(O)C3(O)C(=O)C(C)=CC32)C2C(C)(C)C12OC(=O)C(C)CC` (stereo not drawn) [Compound 3, 12-[(2E,4E,6E)-dodeca-2,4,6-trienoyl]-13-(2-methylbutanoyl)-6,7-epoxy-4,5,9,12,13,20-hexahydroxy-1-tigliaen-3-one]: the “Differentiation endpoint” value in assay [1] turned out to be 10 ng/mL. Also, the “% closure compared to control” value in assay [2] amounted to 270%.

As to `CCCCCC(O)C(O)/C=C/C=C/C(=O)OC1C(C)C2(O)C(C3OC3(CO)C(O)C3(O)C(=O)C(C)=CC32)C2C(C)(C)C12OC(=O)C(C)CC` (stereo not drawn) [Compound 11, 12-[(2E,4E)-6,7-dihydroxydodeca-2,4-dienoyl]-13-(2-methylbutanoyl)-6,7-epoxy-4,5,9,12,13,20-hexahydroxy-1-tigliaen-3-one], the “% closure compared to control” value in assay [2] is 270%.

Regarding `CCCCCC=CC=CC(=O)OC1C(C)C2(O)C(C3OC3(CO)C(O)C3(O)C(=O)C(C)=CC32)C2C(C)(C)C12OC(=O)C(C)CC` (stereo not drawn) [Compound 18, 12-[(2Z,4E)-deca-2,4-dienoyl]-13-(2-methylbutanoyl)-6,7-epoxy-4,5,9,12,13,20-hexahydroxy-1-tigliaen-3-one], the “% closure compared to control” value in assay [2] is listed as 220%.

For `CCCCCC=CC=CC(=O)OC1C(C)C2(O)C(C3OC3(CO)C(O)C3(O)C(=O)C(C)=CC32)C2C(C)(C)C12OC(=O)C(C)CC` (stereo not drawn) [Compound 24, 12-[(2E,4E)-deca-2,4-dienoyl]-13-(2-methylbutanoyl)-6,7-epoxy-4,5,9,12,13,20-hexahydroxy-1-tigliaen-3-one], in assay [1], the “Differentiation endpoint” value came to 1 ng/mL.

Regarding `CCC(C)C(=O)OC1C(C)C2(O)C(C3OC3(CO)C(O)C3(O)C(=O)C(C)=CC32)C2C(C)(C)C12OC(C)=O` (stereo not drawn) [Compound 52, 12-(2-methylbutanoyl)-13-acetyl-6,7-epoxy-4,5,9,12,13,20-hexahydroxy-1-tigliaen-3-one], the “Differentiation endpoint” value in assay [1] is recorded as 10 ng/mL.

With `CCCCCC(=O)OC12C(O)C(C)C3(O)C(C4OC4(CO)C(O)C4(O)C(=O)C(C)=CC43)C1C2(C)C` (stereo not drawn) [Compound 53, 13-hexanoyl-6,7-epoxy-4,5,9,12,13,20-hexahydroxy-1-tigliaen-3-one], the “Differentiation endpoint” value in assay [1] was found to be 100 ng/mL.
